Experimental data taken from US8367607B2, “Oxyntomodulin peptide analogue” (Eli Lilly and Company, priority 2009, dated 2013).
Marks after values point to notes of the source that are not given here.

Legend:
[1] = Food intake, body weight and body composition in DIO mice, Study 1: two week treatment; assay type: in vivo, diet-induced obese (DIO) C57BL/6 mice
Procedure: Three to four months old male diet-induced obese (DIO) C57BL/6 mice are used. Animals are individually housed in a temperature-controlled (24° C.) facility with a 12 hour light/dark cycle (lights on 22:00), and have free access to food and water. […] Body weight and the weight of food plus the hopper are measured at the same time. Food consumed in the preceding 24 hours is calculated by subtracting current weight of food plus the hopper from that of the previous day. Absolute changes in body weight are calculated by subtracting the body weight of the animal prior to the first injection. […] Fat free mass is calculated by subtracting fat mass from total body weight.

[2] = Food intake, body weight, body composition, calorimetry and plasma markers in DIO mice, Study 2: four week treatment; assay type: in vivo, diet-induced obese (DIO) C57BL/6 mice
Procedure: Three to four months old male diet-induced obese (DIO) C57BL/6 mice are used. Animals are individually housed in a temperature-controlled (24° C.) facility with a 12 hour light/dark cycle (lights on 22:00), and have free access to food and water. After 2 weeks acclimation to the facility, mice are randomized to treatment groups (n=8-10/group), each group having similar mean body weight and fat mass. Before the experiment, mice are subcutaneously (sc) injected with vehicle solution and weighed for 2 days to acclimate them to the procedures.
Body weight and the weight of food plus the hopper are measured at the same time. Food consumed in the preceding 24 hours is calculated by subtracting current weight of food plus the hopper from that of the previous day. Absolute changes in body weight are calculated by subtracting the body weight of the animal prior to the first injection. On days 1, 14 and 28 total fat mass is measured by nuclear magnetic resonance (NMR) using an Echo Medical System (Houston, Tex.) instrument. Fat free mass is calculated by subtracting fat mass from total body weight.

[3] = Oral glucose tolerance test after 2-week treatment in DIO mice; assay type: in vivo; details: for Glucose AUC (0 to 120 min), oral glucose load, MEAN: DIO mice
Procedure: (§1) Fifty-six hours after the last injection as described in Example 7 (Study 1) in DIO mice, mice are fasted for 16 hours prior to the start of the glucose tolerance test. At time 0, animals are given 2 g/kg dextrose by oral gavage or intraperitoneal (IP) injection. Blood is collected by tail vein bleeding at 0, 15, 30, 60 and 120 minutes after glucose challenge. Glucose concentration is measured by glucometer.

[4] = Intraperitoneal glucose tolerance test after 4-week treatment in DIO mice; assay type: in vivo; details: for Glucose AUC (0 to 120 min), intraperitoneal glucose load, MEAN: after 4 week treatment, DIO mice
Procedure: as §1
An intraperitoneal glucose tolerance test (IPGTT) is performed on day 29, 3 days after the last injection as described in Example 7 (Study 2) in DIO mice.

[5] = Intraperitoneal glucose tolerance test in lean mice; assay type: in vivo, C57BL/6 mice; details: 16 hours before test
Procedure: Nine week old male C57BL/6 mice are used in the study Animals are randomized into groups based on fed body weight. […] Food is removed at the time of injection of peptide or vehicle. At time 0, animals are given 2 g/kg dextrose by IP injection. Blood is collected by tail vein bleeding at 0, 3, 6, 12 and 30 minutes after glucose challenge. Glucose concentration is measured by glucometer. Insulin is measure by Mesoscale.

[6] = Oral glucose tolerance test (OGTT) in ob/ob mice; assay type: in vivo; details: single injection 7.5 nmole/kg
Procedure: Two to three months old male ob/ob mice are individually housed in a temperature-controlled (24° C.) facility with a 12 hour light/dark cycle (lights on 2200 hours), and have free access to the standard chow and water. After at least 2 weeks of acclimation to the facility, 3-hours fasting blood glucose is measured by tail vein bleeding at 9 AM. Mice with blood glucose under 180 mg/dL are not used. Remaining animals are randomized to treatment groups (N=6-7/group), each group having similar average blood glucose level. The mice are given access to food until the time of injection. […] Food is removed at the time of injection. An OGTT (Table 7) or IPGTT (Table 8) is performed 16 hours after the peptide injection. At time 0, animals are given 2 g/kg dextrose by oral gavage (Table 7) or intraperitoneal injection (Table 8). Blood is collected by tail vein bleeding at 0, 15, 30, 60 and 120 minutes after glucose challenge. Glucose concentration is measured by glucometer.

[7] = Acute effects on plasma FGF21, triglyceride levels and hepatic gene expression in DIO mice; assay type: in vivo, diet-induced obese C57BL/6 mice; details: single sc injection 22.5 nmole/kg
Procedure: The day before the study, mice are randomized to treatment groups (N=7/group), each group having similar mean body weight. […] Food is removed at the time of injection of peptide or vehicle. The following morning (approximately 10 AM), the animals are sacrificed to collect plasma and liver tissue. Glucose and triglyceride concentrations are measured using a Hitachi blood chemistry analyzer. Gene expression is determined by RT-PCR. Malonyl-CoA and acetyl-CoA levels are measured by HPLC.

[8] = high dose, completion of 4-week study

With “His-(Aib)-Gln-Gly-Thr-Phe-Thr-Ser-Asp-Tyr-Ser-Lys-Tyr-Leu-Asp-Ser-Lys-Lys-Ala-Gln-Glu-Phe-Val-Gln-Trp-Leu-Leu-Asn-(Aib)-Gly-Arg-Asn-Arg-Asn-Asn-Ile-Ala-Cys(20 kDa PEG)-Cys(20 kDa PEG)” the “cumulative weight loss, reduction compared to the vehicle group” value ([1]; 7.5 nmole/kg every 3 days, 2 weeks) was “about 9%”, the “Fat mass loss (g fat weight change for 14 days)” value ([1]; 7.5 nmole/kg sc every 3 days) was -2.2 ± 0.3 g and the “Overall weight loss (g weight change for 14 days)” value ([1]; 7.5 nmole/kg sc every 3 days) was -3.1 ± 0.4 g. The “Total food intake (g total for 14 days)” value ([1]; 7.5 nmole/kg sc every 3 days) was 35.0 ± 0.8 g, the “vehicle controlled cumulative weight loss” value ([1]; 15 nmole/kg every 3 days, 2 weeks) was 18% and the “Fat mass loss (g fat weight change for 14 days)” value ([1]; 15 nmole/kg sc every 3 days) was -3.9 ± 0.7 g. For the same substance, the “Overall weight loss (g weight change for 14 days)” value ([1]; 15 nmole/kg sc every 3 days) was -6.1 ± 0.9 g, the “Total food intake (g total for 14 days)” value ([1]; 15 nmole/kg sc every 3 days) was 29.8 ± 1.5 g and the “cumulative food intake reduction compared to the vehicle group” value ([1]; 15 nmole/kg, end of 2-week study) was 27%. For the same substance, the “effect on food intake and body weight” value ([1]; 7.5 and 15 nmole/kg, 2 weeks) was “dose-dependent reduction”, the “Total food intake (g total for the first 14 days)” value ([2]; 6.7 nmole/kg sc every 3 days) was 36.0 ± 1.1 g and the “Fat mass loss (g fat weight change for 28 days)” value ([2]; 6.7 nmole/kg sc every 3 days) was -0.7 ± 0.2 g. The “Overall weight loss (g weight change for 28 days)” value ([2]; 6.7 nmole/kg sc every 3 days) was -2.0 ± 0.4 g, the “weight loss compared with 22.5 nmole/kg dose of the positive control” value ([2]; 20 nmole/kg) was “significantly greater weight loss” and the “Total food intake (g total for the first 14 days)” value ([2]; 20.0 nmole/kg sc every 3 days) was 26.1 ± 1.4 g. For the same substance, the “Fat mass loss (g fat weight change for 28 days)” value ([2]; 20.0 nmole/kg sc every 3 days) was -7.5 ± 0.7 g, the “Overall weight loss (g weight change for 28 days)” value ([2]; 20.0 nmole/kg sc every 3 days) was -11.1 ± 0.9 g and the “maximal weight reduction, of the initial body weight” value ([2]; 20 nmole/kg, after 15 days of treatment) was “about 25%”. The “increase of averaged 24-hour energy expenditure versus vehicle” value ([2]; 20 nmole/kg, indirect calorimetry, day 21) was 18%, the “leptin levels versus vehicle treated controls” value [2, 8] was “significantly reduced” and the “plasma adiponectin levels versus vehicle treated controls” value [2, 8] was “statistically significantly difference”. The cumulative food intake ([2]; high doses (20 nmole/kg)) was “significantly decreased”, the “body weight versus positive control group” value ([2]; lower doses (6.7 nmole/kg)) was “decreased body weight to a similar degree as seen in the positive control group” and the “Glucose AUC (0 to 120 min), oral glucose load, MEAN” value ([3]; 7.5 nmole/kg) was 17722* mg * min/dL. The “Glucose AUC (0 to 120 min), oral glucose load, MEAN” value ([3]; 15 nmole/kg) was 17518* mg * min/dL, the “blood glucose at all time points before and after the oral glucose challenge versus vehicle” value ([3]; all doses) was “significantly lowered” and the “Glucose AUC (0 to 120 min), intraperitoneal glucose load, MEAN” value ([4]; 6.7 nmole/kg) was 30073 mg·min/dL. For the same substance, the “Glucose AUC (0 to 120 min), intraperitoneal glucose load, MEAN” value ([4]; 20.0 nmole/kg) was 19264* mg * min/dL, the “blood glucose at all time points before and after IP glucose challenge versus vehicle” value ([4]; high dose of analogue, both doses of positive control, day 29) was “significantly lowered” and the “glucose levels after IP glucose challenge” value ([4]; low dose, day 29) was “little effect”. For the same substance, the “Glucose AUC (0 to 30 min), IPGTT in lean mice, MEAN” value ([5]; 5 nmole/kg) was 7059 mg·min/dL, the “Insulin AUC (0 to 30 min), IPGTT in lean mice, MEAN” value ([5]; 5 nmole/kg) was 30.67* ng * min/mL and the “Glucose AUC (0 to 30 min), IPGTT in lean mice, MEAN” value ([5]; 15 nmole/kg) was 6103* mg * min/dL. For the same substance, the “Insulin AUC (0 to 30 min), IPGTT in lean mice, MEAN” value ([5]; 15 nmole/kg) was 45.26* ng * min/mL, the “blood glucose in ob/ob mice” value [6] was “normalized blood glucose” and the “blood glucose levels at all time points after glucose challenge versus vehicle control group” value ([6]; ob/ob mice) was “significantly lower”. The “decrease of liver acetyl-CoA concentration versus vehicle control” value ([7]; DIO mice) was 39%, the “decrease of liver malonyl-CoA concentration versus vehicle control” value ([7]; DIO mice) was 63% and the “decrease of hepatic ChREBP gene expression” value ([7]; RT-PCR) was 52%. The “decrease of hepatic PCSK9 gene expression” value ([7]; RT-PCR) was 61%, the “increase of hepatic pgc-1a gene expression” value ([7]; RT-PCR) was 7 fold and the “induction of hepatic FGF21 gene expression” value ([7]; RT-PCR) was 17 fold. For the same substance, the “increase in circulating FGF21” value ([7]; plasma) was 6 fold.
